Data set [1] is described as follows: Crossover dietary trial: serum AED concentration. It counts as in vivo, canine. The conditions noted are these: for concentration at 3 months: both sexes, mixed: 17 different breeds and cross breeds, dog, in vivo, read-out: serum concentration of PB. As to the method:
A 6-month prospective, randomized, double blinded, placebo controlled, crossover dietary trial comparing an MCT-containing diet to a standardized placebo diet containing no MCTs in canine epilepsy was performed. Subjects were fed either the MCT or placebo diet for 3 months (Day 1 to Day 90±2 days) followed by a subsequent respective switch of diet for a further 3 months (Day 90 to Day 180±2 days). Relevant data were collected on the following variables at visit 1 (Day −2), visit 2 (Day 90±2 days) and visit 3 (day 180±2 days): seizure frequency; body weight; measurements of serum phenobarbital (PB) and/or (potassium bromide) KBr concentration as appropriate; dynamic bile acids; complete blood cell count; standard clinical serum chemistry; and adverse events.
Seizure frequency refers to the number of seizures per month and seizure-days refers to the number of days in a month with seizure occurrence. The severity of seizures was analyzing using the McNemar test by comparing the presence of cluster seizures between diet groups. Comparisons made between the MCT and placebo standardized diet groups were made using match-paired student's t tests for parametric data and Wilcoxon matched-pairs signed rank test for non-parametric data where both were used two-sided and P<0.05 was considered significant. Non-parametric data are presented as median (25-75% percentile) and parametric data are shown as mean (+/−SD).
The present study used twenty-one dogs of 17 different canine breeds including: American bulldog; 2 Beagles; 2 Border Collies; Boxer; Cavalier King Charles Spaniel; English Bull Terrier; English Springer Spaniel; German Shepherd; Golden Retriever; Lhasa Apso; Mastiff; Rhodesian Ridgeback; Saint Bernard; Siberian Husky; Slovakian Rough Haired Pointer; Welsh Springer Spaniel and 3 Cross breeds. The study population consisted of 15 males, of which 10 were neutered and 5 were intact and 6 females of which 4 were neutered and 2 were intact. The dogs were of 4.59±1.73 years of age and weighed 29.79±14.73 kilograms at start of trial. All 21 dogs received PB. Most dogs were also treated additionally with KBr (n=18). Some dogs were chronically treated with a third AED, imepitoin (n=1) or levetiracetam (n=4). Twelve owners had rectal diazepam or levetiracetam for pulse therapy at home available for the acute treatment of cluster seizure episodes. There was no difference for the acute or chronic treatment regimens between the placebo or MCT phase.

In data set [2] the test system is fifteen year old Dalmatian diagnosed with idiopathic epilepsy. In words: Example 2 case: Dalmatian with idiopathic epilepsy. It counts as in vivo, canine. The conditions noted are these: treatment subsequently discontinued. The source says: A fifteen year old Dalmatian was diagnosed with idiopathic epilepsy at age 3. Seizure phases of prodrome, aura, ictus, and postictal state were generally one to two […] in length. […] Subsequent treatment was proscribed in the form of an MCT diet (commercially available ProPlan® Senior 7+Chicken and Rice formula formulated to contain 5.6% MCTs, at least 26% crude protein, at least 15% crude fat, and 50% carbohydrates with less than 2% as crude fiber).

Like-named read-outs stand apart in the source and are kept apart here.

Regarding `CCC1(c2ccccc2)C(=O)NC(=O)NC1=O` [PB, phenobarbital], the concentration at 3 months in data set [1] (MCT diet, spread 25.00-36.75 μg/ml, p=0.4233, no significant change) worked out at 32.5 µg/mL; in data set [1] (placebo-standardized diet, spread 23.50-34.00 μg/ml), 26.5 µg/mL.
In the case of `[Br-].[K+]` [potassium bromide], the “serum concentration of potassium bromide” value was 1290 µg/mL in data set [1] (MCT diet, spread 1.02-1.61 mg/ml, p=0.4037, no significant change) and 1230 µg/mL in data set [1] (placebo-standardized diet, spread 1.09-1.89 mg/ml). Also, the side effects entry in data set [2] is “polyphagia, sedation, and ataxia”.

The values are drawn from patent US10668041B2, “Compositions and methods comprising medium chain triglycerides for treatment of epilepsy” (Societe des Produits Nestle SA, priority 2014, dated 2020).
